Reference: patent US9011853B2, “B7-H4 fusion proteins and methods of use thereof” (Amplimmune, Inc., priority 2009, dated 2015)

Experiments:
[1] = tested on: CD4^+ T cells, Treg cells, effector/memory CD4^+ T cells; assay: T cell subsets in spleen, draining lymph nodes and CNS of R-EAE mice (FACS, immunochemical staining); format: in vivo, mouse
Excerpt: Mice were anesthetized with nembutal and perfused with phosphate-buffered saline (PBS). Brains and spinal cords from each mouse were frozen in OCT (Miles Laboratories; Elkhart, Ind.) in liquid nitrogen. Tissue from the lower lumbar region of the spinal cord was sectioned at 6 μm on a Reichert-Jung 1800 cryotome and mounted on Superfrost Plus electrostatically charged slides. Cross-sections (10 μm thick for brains and 6 μm for spinal cords) from longitudinal sections of brain and spinal cord were performed. Tissues were stained with biotin-conjugated antibody to mouse CD4, PLP and FoxP3. Positive staining of biotinylated antibodies was visualized by a Tyramide Signal Amplification (TSA) Direct kit (NEN, Boston, Mass.) according to manufacturer's instructions and fluorescein anti-mouse IgG (Vector Laboratories). Sections were counterstained with 4,6-diamidino-2-phenylindole (DAPI; Sigma-Aldrich) and then coverslipped with Vectashieldmounting medium (Vector Laboratories). Slides were examined and images were acquired via epifluorescence using the SPOT RT camera (Diagnostic Instruments, Sterling Heights, Mich.). Sections from each group were analyzed at 40 or 100× magnification.
The effect of B7-H4-Ig treatment on the number of Treg cells in vivo was analyzed in this study. The effect of B7-H4-Ig on the number and phenotype of CD4^+ T cells infiltrating into the CNS following B7-H4-Ig treatment, the relevant site for activity in vivo, was determined. […] SJL mice were first immunized with PLP139-151 peptide. B7-H4-Ig treatment started during remission (Day 23). Mice received mouse Control IgG, 100 μg, or B7-H4-Ig at either 60 or 300 μg, 3 times per week for 2 weeks or 4 weeks. Half of the animals (5 mice from each group) were euthanized on Day 35, after 6 doses of B7-H4-Ig. The rest of the animals (5 mice from each group) were euthanized on Day 50, after 12 doses of B7-H4-Ig. Mouse spleens, draining lymph nodes, spinal cords and brains were collected, tissues were made into a single cell suspension and counted via the use of a hemocytometer, and analyzed for the presence of effector/memory CD4^+ T cells (CD4^+CD44^+) and Treg cells (CD4^+CD25^+FoxP3^+). Whole cerebellar and lumbar spinal cord tissue samples were snap frozen and processed as described above to analyze the number of CD4^+ and FoxP3^+ cells present within the CNS by histology.
Cells isolated from spleen, draining lymph node and also lumbar spinal cord were stained for CD4, CD44 and FoxP3 followed by FACS analysis to obtain the number of total CD4^+ T cells, Treg (CD4^+/Foxp3^+) and effector/memory CD4^+ T cells (CD4^+/CD44^+). The data is presented in FIGS. 43A, 43B, and 43C as the mean number of cells for each phenotype from individual mouse. […] Similar data was obtained after the full course of 12 treatments.

Human T cells = assay: Quantitative RT-PCR of human T cells under Th17 differentiation cocktail; format: cell-based; conditions: 1 μg/mL, vs Synagis (FIG. 55)
Description: Human T cells were activated by anti-CD3 and anti-CD28 bound beads in the presence of Th17 differntiation cocktail (TGF-β1 (10 ng/mL), IL-6 (50 ng/mL), IL-23 (4 ng/mL), anti-IL-4 (10 μg/mL), anti-IFN-γ (5 μg/mL) and anti-IL-2 (5 μg/mL)). Cells were incubated with two different variants of B7-H4-Ig (1 μg/mL) identified as Q or L, or a humanized monoclonal IgG antibody directed against an epitope in the A antigenic site of the F protein of the Respiratory Syncytial Virus (Synagis), as an isotype control.

[2] = Clearance from circulation; format: in vivo; conditions: compared with control IgG
[3] = tested on: CD4^+CD62L^+ naïve T cells; assay: In vitro Th17 polarization: proliferation and cytokine production; format: cell-based, mouse; conditions: 0, 0.1, 1 or 10 μg/mL in solution
Description: Mouse splenocytes were first removed isolated from DO11.10 mice, which express an MHC class II restricted T cell receptor specific for OVA323-339. Mouse CD4^+ T cells were purified using a Miltenyi CD4^+ T cell negative isolation kit (Cat#130-090-860). Naïve CD4^+ T cells were further purified using the Miltenyi anti-CD62L positive selection magnetic beads (cat#130-049-701).
CD4^+ CD62L^+ naïve T cells with or without CD25^+ T cells were cultured in serum free HL-1 media in the presence of rTGF-β (10 ng/mL), IL-6 (50 ng/mL), IL-23 (4 ng/mL), anti-IL-4 (1 μg/mL), anti-IFN-γ (1 μg/mL) and anti-IL-2 (1 μg/mL). To provide murine B7-H4-Ig in an immobilized format, 96-well flat bottom plates were first coated with murine B7-H4-Ig, 100 μl per well at 1 μg/mL, and incubated at 37° C. for 2 hours. […] For non-specific antigen activation, Mouse CD3/CD28 T Cell Expander beads (Dynabeads®; Invitrogen, Cat#11452D) was added into each well, at a 1:1 cell to bead ratio. […]
[^3H]-Thymidine (1 μCi/well) was added into each well 24 hr post co-incubation. Proliferation was determined by uptake of [^3H]-thymidine detected at 48 hr post [^3H]-thymidine addition using a Topcount Microplate Scintillation Counter (Packard Instruments, Meridan, Conn.). Results are expressed as the mean of triplicate cultures±SEM. […]

Substance | amount of Treg cells in the CNS ([1]; FIG. 43C) | number of Treg (CD4+/FoxP3+) cells within the spleen and lymph node ([1]; R-EAE mice treated during remission (FIGS. 43A, 43B)) | level of demyelination via anti-PLP staining ([1]; control IgG vs B7-H4-Ig treated mice) | number of FoxP3+ cells within the CNS (histology) ([1]; lumbar spinal cord cross sections) | percentage of Treg cells among CD4+ T cells in the CNS ([1]; vs Control IgG injected mice (FIG. 44)) | effector/memory T cells (CD4+/CD44+) within the CNS ([1]; vs Control IgG treated mice (FIG. 43C)) | expression of mRNA involved in Th17 cell differentiation (RORc, IL-17A, IL-17F, IL-21, IL-22) (Human T cells) | clearance from circulation [2] | IL-17 production in Th17 cells ([3]; anti-CD3/CD28 beads (FIG. 28)) | murine Th17 proliferation ([3]; anti-CD3/CD28 beads, dose dependent (FIG. 26))
B7-H4-Ig: B7-H4 extracellular domain fused to Ig Fc; bare label is the human protein in Example 3, murine protein in Examples 1, 2, 5, 7-11 | appeared constant | remarkably increased | no significant difference in the level of demyelination | increases the number of FoxP3^+ cells within the CNS | significantly higher | decreased | downregulates the expression of mRNA involved in Th17 cell differentiation | cleared from circulation more rapidly than control IgG | – | –
Human B7-H4-Ig: human B7-H4 extracellular domain fused to hinge, CH2 and CH3 regions of human immunoglobulin Cγ1 chain; representative SEQ ID NOs:114-137 | – | – | – | – | – | – | – | – | reduced | blocked murine Th1/Th17 proliferation
